From US8163709B2, “TAK1-D mediated induction of cell death in human cancer cells by specific sequence short double-stranded RNAS” (Board of Regents of the University of Texas System, priority 2008, dated 2012) come the findings set out here.

Entries after “also recorded” stand apart in the source; their conditions may differ.

Data set [1] concerns the target T1, TAK1-D (Homo sapiens, UniProt O43318).
T1 sequence (O43318 1-491 isoform O43318-4): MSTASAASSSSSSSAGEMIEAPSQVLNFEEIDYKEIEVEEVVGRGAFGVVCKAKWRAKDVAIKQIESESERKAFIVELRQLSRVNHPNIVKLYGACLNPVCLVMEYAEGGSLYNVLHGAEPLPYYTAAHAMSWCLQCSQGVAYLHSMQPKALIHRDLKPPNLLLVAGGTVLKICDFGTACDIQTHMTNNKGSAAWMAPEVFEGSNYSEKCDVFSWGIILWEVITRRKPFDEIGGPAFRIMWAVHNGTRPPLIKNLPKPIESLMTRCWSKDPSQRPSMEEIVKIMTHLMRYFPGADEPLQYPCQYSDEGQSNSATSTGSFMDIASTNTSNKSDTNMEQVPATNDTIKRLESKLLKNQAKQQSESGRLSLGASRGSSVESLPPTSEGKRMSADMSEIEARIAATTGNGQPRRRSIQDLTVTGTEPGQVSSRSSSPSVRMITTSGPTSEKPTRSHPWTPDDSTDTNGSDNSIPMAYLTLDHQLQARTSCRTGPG
Put plainly: TAK1-D autophosphorylation on T184/T187 in H460 cells (Western blot, phospho-specific antibody). The class given is cell-based. Further details: endogenous in cells; host or cells: NCI-H460. Particulars: for activating autophosphorylation (activation) of TAK1-D on T184 and T187: H460 cells, RNA transfected (20 nM), Western blot. The protocol: In an effort to identify the MAPKKK responsible for the activation of the p38 MAP kinase and SAPK/JNK pathway, several of these kinases were screened for siRNA si5 mediated activation.
Immunoblot analysis. Western blotting was performed exactly as described previously (Kodym et al., 2008b). In addition to the primary antibodies previously mentioned (Kodym et al., 2008b) the following antibodies were used: S6 ribosomal protein (Cell Signaling #2217), DPM1 (Santa Cruz #sc-15836, Santa Cruz, Calif., USA), and Histone H3 (Cell Signaling #9715).
On the technique in general: In western blotting, separated proteins are transferred to a membrane and probed.

Another data set deals with TLK1. Put plainly: TLK1 post-transcriptional silencing in HeLa cells (Western blot). It is filed as cell-based, human. The following applies: 48 h after transfection. The procedure:
In order to test whether dsRNA molecules show the same cellular uptake and stability the efficiency of these molecules to post-transcriptionally silence the expression of TLK1 was determined as si6 as well as si5 siRNA are directed against the mRNA of this protein. […] As a loading control the unchanged expression levels of TAK1-A/B and 3-tubulin are shown in the two lower panels.

For another data set, the system named is NF-κB. Put plainly: NF-κB activation in H460 cells (EMSA, IKKα/β phosphorylation). It is filed as cell-based, human. The following applies: hours after transfection (3 h, 6 h). The procedure: EMSA. Electrophoretic mobility shift assays for NFκB were performed as described previously (Kurland et al., 2001) using 3.5 μg of nuclear protein for each reaction.
FIG. 16B illustrates the effect of dominant-negative TAK1-D/K63W on dsRNA si5 induced cell death. […] As a slight growth inhibition of si5 transfected H460-K63W cells can be observed in FIG. 16B it is interesting to ask whether this is caused by an incomplete suppression of TAK1-D activity or by activation of other dsRNA-dependent stress pathways. To answer this question, the activation of the transcription factor NF-κB by dsRNA si5 was tested, as it well established that dsRNA triggered activation of PKR (Zamanian-Daryoush et al., 2000), TLR3 (Jiang et al., 2003), and RIG1/Mda-5 (Hiscott et al., 2006) leads to a downstream activation of NF-κB.

Data set [2] concerns the target T1, TAK1-D. Briefly: Binding of radiolabeled siRNAs to immobilized FLAG-TAK1-D. Also noted: made in house. Particulars: kinase assay buffer conditions, 3 experiments. From the text: FIGS. 2A-C: Effect of dsRNAs on the activity of purified recombinant TAK1-D protein. (FIG. 2A) In vitro kinase assay showing the activation of TAK1-D autophosphorylation by siRNA si5. FLAG-tagged TAK1-D and His-tagged TAB1 were coexpressed in Hela cells and purified by immunoprecipitation with anti FLAG antibody. […] Error bars indicate the standard error of 3 experiments.
To verify if siRNA si5 indeed interacts with TAK1-D directly, the activation of the kinase was studied in vitro using purified proteins. […] To test whether the increased activation of the TAK1-D/TAB1 complex by siRNA si5 is caused by an increased affinity of the RNA molecule to the kinase, binding of radiolabeled siRNAs to immunoprecipitated FLAG tagged TAK1-D was measured. In FIG. 2C the amount of RNA bound to immobilized FLAG-TAK1-D is given.

The test system of another data set is cdc25A. Briefly: cdc25A phosphorylation in nuclei of NCI-H460 cells. The class given is cell-based, human. The following applies: 2 h. From the text: P38 MAPK as well as SPK/JNK have a large number of downstream targets. Amongst these, the phosphorylation of the cell cycle control phosphatase cdc25 (Bulavin et al., 2001; Goss et al., 2003) are of particular interest, as these phosphorylations have the potential to transduce an immediate and direct effect of TAK1-D activation to the cell cycle. […] In contrast, both cdc25A and cdc25B were found in the nucleus and therefore capable of cell cycle control. […] The occurrence of this shifted form of cdc25A is indicative of phosphorylation and inactivation of cdc25A (Zhao et al., 2002). The amount of cdc25B in the nucleus decreases with kinetics similar to the phosphorylation of cdc25A, indicative for a phosphorylation dependent translocation and proteolytic digestion of cdc25B (Cans et al., 1999). Therefore, it can be concluded that activation of TAK1-D in NCI-H460 cells leads to an inactivation of cdc25A and cdc25B through p38 MAPK and SAPK/JNK mediated phosphorylation and proteolytic destruction.

Another data set has as its system H460 cells. Put plainly: Protein synthesis by [35S] methionine incorporation in H460 cells. It is filed as cell-based, human. The following applies: for protein synthesis by [35S] methionine incorporation: 4 h. The procedure: On the next day cells were incubated with the dsRNAs for the given amount of time. Ten minutes prior to labeling the cell culture medium was replaced with cystein/methionine free RPMI. Thereafter, cells were incubated for 15 minutes in cystein/methionine free RPMI containing 40 μC/ml [^35S] methionine (Perkin Elmer, Waltham, Mass., USA).
In order to measure the incorporated radionuclide, cells were washed 5 times with 5% TCA, once with 70% ethanol and the proteins were solubilized in SDS-PAGE sample buffer. After addition of the samples to a liquid scintillation cocktail, [^35S] activity was determined in a LS6500 scintillation counter (Beckmann).
For SDS-PAGE cells were washed 3 times with PBS and proteins were solubilized by heating in non reducing sample buffer. After determination of the protein concentration (D protein assay, Bio-Rad, Hercules, Calif., USA) samples were reduced by the addition of DTT to a final concentration of 100 mM and separated in a 4-12% Bis-Tris gradient gel (NuPAGE, Invitrogen). The gel was dried after Coomassie blue staining and autoradiography was performed using a phosphoimager (Typhoon 9410, Amerham).

On to “si5: 21-mer siRNA against TLK1 mRNA: GGCUUUUGACCUUUAUGAAtt (SEQ ID NO: 2) / ttCCGAAAACUGGAAAUACUU (SEQ ID NO: 3) (sense GGCUUUUGACCUUUAUGAATT; antisense TTCCGAAAACUGGAAAUACUU; chemistry not given here; one strand is listed 3' to 5')”, for which the “activating autophosphorylation (activation) of TAK1-D on T184 and T187” value in the data set with TAK1-D [1] is listed as “a si5 induced signal was detected; also recorded: able to activate Tak1-D; also recorded: leads to phosphorylation of TAK1-D”. Further, in the data set with TAK1-D [1] (NCI-H460 cells, 6 h), the “autophosphorylation signal of Tak1-D six hours after addition” value was “significantly stronger autophosphorylation signal”. Besides, the “expression level of TLK1” value in the data set on TLK1 is given as “drastically reduce the expression level; also recorded: reduced to almost undetectable levels; also recorded: very significant reduction in the expression of TLK1”. The “activation of NF-κB (EMSA of nuclear protein)” value with NF-κB is given as “neither si5 nor si6 transfection lead to an activation; also recorded: does not activate NF-κB”. The “amount of RNA bound to immobilized FLAG-TAK1-D” value with TAK1-D [2] is “significantly greater; also recorded: increased binding”. In the data set on cdc25A, the “phosphorylation of nuclear cdc25A (intensity of the upper band)” value is “increases in intensity within 2 h; also recorded: increased phosphorylation as early as 2 h”. In the data set with H460 cells (H460, after 4 hours, scintillation counting), the “[35S] methionine incorporation, of its initial value” is “about 60%”. Moreover, the “time until [35S] methionine incorporation significantly reduced” value with H460 cells (H460, after transfection) was no more than 1 h. Besides, in the data set with H460 cells (H460, within first 4 hours, SDS-PAGE autoradiography), the “[35S] methionine incorporation, of initial value” was “about 50%”. Moreover, the “protein synthesis by [35S] methionine incorporation” value in the data set on H460 cells (TAK1-D/K63W transfected H460, 10 nM) was “could not be observed; also recorded: no change in protein synthesis can be detected”; in the data set with H460 cells (wild-type and vector transfected H460, 10 nM), “significant reduction in mRNA translation; also recorded: drops significantly”.

For the substance “si6: control 21-mer siRNA against TLK1 mRNA: GGGUGGAAAUGGCUCAAGUtt (SEQ ID NO: 4) / gtCCCACCUUUACCGAGUUCA (SEQ ID NO: 5) (sense GGGUGGAAAUGGCUCAAGUTT; antisense GTCCCACCUUUACCGAGUUCA; chemistry not given here; one strand is listed 3' to 5') [reference compound]”, the “activating autophosphorylation (activation) of TAK1-D on T184 and T187” value in the data set with TAK1-D [1] is “not triggered”. The “expression level of TLK1” value in the data set with TLK1 is given as “drastically reduce the expression level; also recorded: reduced to almost undetectable levels; also recorded: very significant reduction in the expression of TLK1”. Further, the “activation of NF-κB (EMSA of nuclear protein)” value with NF-κB is reported as “neither si5 nor si6 transfection lead to an activation”. Moreover, the inhibition of translation result with H460 cells (H460, SDS-PAGE autoradiography) is “No inhibition of translation was observed”. The “[35S] methionine incorporation” value in the data set on H460 cells (H460, scintillation counting) is “remained unchanged”.
